For 15 compounds, EC50 and Emax results are on record in patent US20110312962A1, “NOVEL 2-MORPHOLINO-3-AMIDO-PYRIDINE DERIVATIVES AND THEIR MEDICAL USE” (NEUROSEARCH A/S, priority 2008, published 2011).

pEC50: −log10 of the molar value.

For the assay, the target named is T1, human Kv7.2+3 (Homo sapiens, UniProt O43525+O43526).
T1 construct: expressed in transfected cells; host or cells: HEK293
Kind of assay: FLIPR-based characterization of Kv7.2+3 modulators (thallium influx, BTC-AM). The following applies: HEK293 cells over-expressing human Kv7.2+3; for pEC50: Tl+ influx FLIPR, 50% of channel activity compared to retigabine control responses; for Emax: maximal response relative to the reference (retigabine) response, read-out: Efficacy. The format is cell-based. How it is done:
This experiment determines the ability of a test compound to modulate the activity of Kv7.2+3 channels heterologously expressed in human HEK293 cells. The ability is determined relative to retigabine. The activity is determined using a standard thallium (I) sensitive assay, e.g. using a fluorometric method in a Fluorescent Image Plate Reader (FLIPR) as described below in more detail.
Full concentration/response curves are generated and EC50 values are calculated based on max values. EC50 values (Effective Concentration) represent the concentration of the test substance, at which 50% of the channel activity is obtained when compared to retigabine control responses. Maximal response determined relative to the reference (retigabine) response is calculated.
Human HEK293 cells over-expressing human Kv7.2+3 are grown in culture medium (DMEM supplemented with 10% foetal bovine serum), in polystyrene culture flasks ([…]) in a humidified atmosphere of 5% CO2 in air, at 37° C. Cell confluence should be 80-90% on day of plating. Cells are rinsed with 4 ml of PBS (phosphate buffered saline) and incubated 2 min with 1 ml of Trypsin-EDTA. After addition of 25 ml of culture medium cells are re-suspended by trituration with a 25 ml pipette.
The cells are seeded at a density of ˜3×10^6 cells/ml (25 μl/well) in black-walled, clear bottom, 384-well plates pre-treated with 0.01 g/l poly-D-lysin (20 μl/well for 30 min). Plated cells were allowed to proliferate for 24 h before loading with dye.
BTC-AM (50 mg, Invitrogen) is added 25.5 μl DMSO. The BTC-AM stock solution (2 mM) is diluted to a final concentration of 2 μM in Cl^− free assay buffer (in mM: 140 Na^+-gluconate, 2.5 K^+-gluconate, 6 Ca2^+-gluconate, 1 Mg^2+ gluconate, 5 glucose, 10 HEPES, pH 7.3) containing 2 μM ouabain, 2 mM amaranth and 1 mM tartrazine.
The culture medium is aspirated from the wells, the cells are washed thrice in Cl^− free assay buffer, and 25 μl of the BTC-AM loading solution is added to each well. The cells are incubated at 37° C. for 60 min.
After the loading period, the TI^+-sensitive BTC fluorescence signal is measured over time using a FLIPR.
• Temperature: Room temp. • First addition: 12 μl test or control compound after 15 sec at a rate of 30 μl/sec and starting height of 20 μl • Second addition: 12 μl stimulus buffer (Cl^− free assay buffer supplemented with 1 mM TI2SO4, 5 mM K2SO4 as well as the quenchers amaranth (2 mM) and tartrazine (1 mM)) is added after an additional 3 minutes at a rate of 30 μl/sec and starting height of 30 μl • Reading intervals: First sequence—3 sec×5, 2 sec×24 and 5 sec×25 Second sequence—1 sec×5, 2 sec×24 and 5 sec×36 Addition plates (compound plate and stimulus plate) are placed in positions 2 and 3, respectively. Cell plates are placed in position 1 and run using the “KCNQ (two additions)” program. FLIPR will then take the appropriate measurements in accordance with the interval settings above. Fluorescence obtained after stimulation is corrected for the mean basal fluorescence (in Cl^− free assay buffer).
Full concentration/response curves are generated and EC50 values (“Effective Concentration”; the concentration at which 50% of the channel activity is obtained when compared to retigabine control responses) are calculated based on peak values. Maxi-mal response determined relative to the reference (retigabine) response is calculated.

`O=C(Cc1cc(F)cc(F)c1)Nc1ccc(NCc2ccc(F)cc2)nc1N1CCOCC1` [Compound 2.1, 2-(3,5-Difluoro-phenyl)-N-[6-(4-fluoro-benzylamino)-2-morpholin-4-yl-pyridin-3-yl]-acetamide]: the negative-log EC50 (pEC50) was 6.89 and the Emax was found to be 100%.
With `CC(C)(Nc1ccc(NC(=O)Cc2cc(F)cc(F)c2)c(N2CCOCC2)n1)c1ccc(F)cc1` [Compound 2.2, 2-(3,5-Difluoro-phenyl)-N-{6-[1-(4-fluoro-phenyl)-1-methyl-ethylamino]-2-morpholin-4-yl-pyridin-3-yl}-acetamide], the pEC50 was 5.27 and the Emax is 86%.
On the same counts, the results for `Cc1ccccc1C(=O)Nc1ccc(NCc2ccc(F)cc2)nc1N1CCOCC1` [Compound 2.3, N-[6-(4-Fluoro-benzylamino)-2-morpholin-4-yl-pyridin-3-yl]-2-methyl-benzamide] are 5.00 and 52%.
On the same counts, the results for `O=C(Cc1ccc2c(c1)OCO2)Nc1ccc(NCc2ccc(F)cc2)nc1N1CCOCC1` [Compound 2.4, 2-Benzo[1,3]dioxol-5-yl-N-[6-(4-fluoro-benzylamino)-2-morpholin-4-yl-pyridin-3-yl]-acetamide] are 6.11 and 104%.
The like results for `COc1ccc(CC(=O)Nc2ccc(NCc3ccc(F)cc3)nc2N2CCOCC2)cc1` [Compound 2.5, N-[6-(4-Fluoro-benzylamino)-2-morpholin-4-yl-pyridin-3-yl]-2-(4-methoxy-phenyl)-acetamide] were, in that order, 6.08 and 98%.
For the compound `COc1cccc(CC(=O)Nc2ccc(NCc3ccc(F)cc3)nc2N2CCOCC2)c1` [Compound 2.6, N-[6-(4-Fluoro-benzylamino)-2-morpholin-4-yl-pyridin-3-yl]-2-(3-methoxy-phenyl)-acetamide], the pEC50 was 6.48 and the Emax stood at 88%.
On the same counts, the results for `O=C(Cc1ccc(Cl)cc1Cl)Nc1ccc(NCc2ccc(F)cc2)nc1N1CCOCC1` [Compound 2.7] are 5.39 and 47%.
On the same counts, the results for `O=C(Cc1cccc(C(F)(F)F)c1)Nc1ccc(NCc2ccc(F)cc2)nc1N1CCOCC1` [Compound 2.8, N-[6-(4-Fluoro-benzylamino)-2-morpholin-4-yl-pyridin-3-yl]-2-(3-trifluoromethyl-phenyl)-acetamide] are 6.23 and 87%.
`O=C(Cc1ccccc1F)Nc1ccc(NCc2ccc(F)cc2)nc1N1CCOCC1` [Compound 2.9, N-[6-(4-Fluoro-benzylamino)-2-morpholin-4-yl-pyridin-3-yl]-2-(2-fluoro-phenyl)-acetamide]: the pEC50 is 6.68 and the Emax was 86%.
On the same counts, the results for `O=C(Cc1cccc(F)c1)Nc1ccc(NCc2ccc(F)cc2)nc1N1CCOCC1` [Compound 2.10, N-[6-(4-Fluoro-benzylamino)-2-morpholin-4-yl-pyridin-3-yl]-2-(3-fluoro-phenyl)-acetamide] are 7.46 and 93%.
The like results for `O=C(Cc1ccc(Cl)cc1)Nc1ccc(NCc2ccc(F)cc2)nc1N1CCOCC1` [Compound 2.11] were, in that order, 6.64 and 88%.
Consider `O=C(CSc1ccc(F)cc1)Nc1ccc(NCc2ccc(F)cc2)nc1N1CCOCC1` [Compound 2.12], for which the pEC50 was 5.57 and the Emax amounted to 87%.
For the compound `O=C(COc1cccc(F)c1)Nc1ccc(NCc2ccc(F)cc2)nc1N1CCOCC1` [Compound 2.13, 2-(3-fluorophenoxy)-N-[6-[(4-fluorophenyl)-methylamino]-2-morpholino-3-pyridyl]acetamide], the pEC50 was 5.18 and the Emax stood at 86%.
On the same counts, the results for `O=C(Cc1ccc(Cl)nc1)Nc1ccc(NCc2ccc(F)cc2)nc1N1CCOCC1` [Compound 2.14, 2-(6-chloro-3-pyridyl)-N-[6-[(4-fluorophenyl)-methylamino]-2-morpholino-3-pyridyl]acetamide] are 6.05 and 80%.
On the same counts, the results for `O=C(Nc1ccc(NCc2ccc(F)cc2)nc1N1CCOCC1)c1cccnc1F` [Compound 2.15, 2-fluoro-N-[6-[(4-fluorophenyl)-methylamino]-2-morpholino-3-pyridyl]-pyridine-3-carboxamide] are 4.96 and 28%.
